Tests used:
Assay type in all cases: in vivo
[1] = tested on: IL-10 KO mice; experiment: 1,25(OH)2D3 supplementation (0.005 μg/d, 4 weeks) of vitamin D deficient IL-10 KO mice, IBD symptoms
Source text: (§1) MICE. Age and sex matched C57BL/6 IL-10 KO, and wildtype (WT) mice were produced in the Pennsylvania State University breeding colony; the breeding pairs were obtained from Jackson Laboratory (Bar Harbor, Me.). The animal facilities at the Pennsylvania State University are specific pathogen free and therefore breeding IL-10 KO mice was successful. All of the procedures described were reviewed and approved by the Pennsylvania State University Institutional Animal Care and Use Committee on Jan. 25, 1999, IACUC# number: 98118-A0.
(§2) DIETS. From a single pool of breeding females fed commercial mouse diet (#5105 Ralston Purina Co.), females in the second week of gestation were selected and randomly distributed into two groups. Starting pregnant dams on vitamin D deficient diet ensured that by 5 weeks of age the weanlings were vitamin D deficient (Cantorna et al. 1996). All mice were fed synthetic diets made in the laboratory (Yang et al. 1993; modification of Smith et al. 1987). The mice were vitamin D deficient, vitamin D sufficient or 1,25-dihydroxycholecalciferol supplemented. Mice were housed under yellow light to prevent the synthesis of vitamin D in skin. All of the mice were vitamin D deficient until weaning.
(§3) The 3 week old vitamin D deficient mice were randomly assigned to various treatment groups as described below. […] Experimental diets were prepared fresh and replaced every 2-3 days during the experiment. To ensure that 1,25-dihydroxycholecalciferol (1,25(OH)2D3) treated mice ate all of the 1,25(OH)2D3 provided, food cups containing 8 g of diet were replaced every other day (completely eaten) for the duration of each experiment (Cantorna et al. 1996, Cantorna et al. 1998a). In order to monitor vitamin D toxicity, 1,25(OH)2D3 supplemented mice were observed daily for signs of hypercalcemia. Symptoms of hypercalcemia monitored daily included overall health and weight loss.
In the 2nd series of experiments 3 week old vitamin D deficient mice were split into 2 groups. One group of mice was maintained on the vitamin D deficient diet and the other group was supplemented with 0.005 μg/d 1,25(OH)2D3. The vitamin D deficient and 1,25(OH)2D3 supplemented mice were sacrificed 4 weeks later at […].
SERUM MEASUREMENTS. Mice were bled at 5 weeks of age and at the end of the experiments to measure hemoglobin, calcium, and red blood cell numbers. Serum was collected every 2 weeks and serum calcium measured (normal for mice is 2.00-2.75 mmol/L). Vitamin D deficiency was also monitored by serum calcium analysis (serum calcium less then 1.75 mmol/L). Calcium (587-A) and hemoglobin (525-A) colorometric kits were from Sigma Chemical Co. (St. Louis, Mo.). Red blood cells were counted using a hemocytometer.
(§4) IBD SEVERITY. Mortality associated with the development of diarrhea was recorded in IL-10 KO and WT mice. In addition the small intestines (SI) were removed and weighed. The jejunum of the […] KO mice is visibly inflamed and has been used by others to monitor symptoms of IBD in mice (Kuhns et al. 1993). The jejunum of the SI was saved in 100 g/L formalin in phosphate buffered saline solution and sent to the Penn State Diagnostic Laboratory for sectioning and staining with hematoxyalin and eosin. Four or more paraffin sections (4 microns) from each mouse were scored using the exact procedure described by Kuhns et. al (1993). The sections were scored blindly on a scale of 0 to 5 for inflammation. […]

[2] = tested on: IL-10 KO mice; experiment: Short term (2 weeks, 0.2 μg/d) 1,25(OH)2D3 treatment of IL-10 KO mice started at first IBD symptoms
Source text: as §1, §2, §3
In the 3rd experimental design 1,25(OH)2D3 treatment was started at the first signs of IBD symptoms (diarrhea, 7 weeks of age). Seven week old vitamin D deficient mice were split into 2 groups. One group was maintained vitamin D deficient and the other group was supplemented with 0.2 μg/d 1,25(OH)2D3. The mice were treated for 2 weeks and the 9 week old mice were sacrificed.
as §4, with “The jejunum of the SI was saved in 100 g/L formalin in phosphate buffered saline solution and sent to the Penn State Diagnostic Laboratory for sectioning and staining with hematoxyalin and eosin.” left out

[3] = tested on: WT mice; experiment: 1,25(OH)2D3 supplementation (0.005 μg/d, 4 weeks) of vitamin D deficient WT mice; conditions: 0.005 μg/day 1,25(OH)2D3 for 4 weeks, mean ± SEM
Source text: as §1
DIETS. […]
(§5) The 3 week old vitamin D deficient mice were randomly assigned to various treatment groups as described below. […] Symptoms of hypercalcemia monitored daily included overall health and weight loss. […]
SERUM MEASUREMENTS. […] Serum was collected every 2 weeks and serum calcium measured (normal for mice is 2.00-2.75 mmol/L). Vitamin D deficiency was also monitored by serum calcium analysis (serum calcium less then 1.75 mmol/L). […] Red blood cells were counted using a hemocytometer.
(§6) IBD SEVERITY. Mortality associated with the development of diarrhea was recorded in IL-10 KO and WT mice. […] Four or more paraffin sections (4 microns) from each mouse were scored using the exact procedure described by Kuhns et. al (1993). The sections were scored blindly on a scale of 0 to 5 for inflammation. […]

[4] = tested on: IL-10 KO mice; experiment: Mortality and growth of IL-10 KO mice fed cholecalciferol (vitamin D sufficient) from weaning
Source text: as §1
DIETS. From a single pool of breeding females fed commercial mouse diet (#5105 Ralston Purina Co.), females in the second week of gestation were selected and randomly distributed into two groups. Starting pregnant dams on vitamin D deficient diet ensured that by 5 weeks of age the weanlings were vitamin D deficient (Cantorna et al. 1996). […]
as §5, §6

[5] = tested on: IL-10 KO mice; experiment: Food restriction experiment, IL-10 KO mice on cholecalciferol diet (+D restricted); conditions: mean ± SEM
Source text: as §1, §2
as §3, with “In order to monitor vitamin D toxicity, 1,25(OH)2D3 supplemented mice were observed daily for signs of hypercalcemia.” left out, “loss. […]” for “loss.”
as §6

[6] = 1,25(OH)2D3 supplemented IL-10 KO and WT mice, data not shown
[7] = 0.2 μg/d 1,25(OH)2D3 for 2 weeks from 7 weeks of age, mean ± SEM
[8] = treatment for as little as 2 weeks
[9] = 5.0 μg/d cholecalciferol for 4 weeks

Row | SMILES | Erythrocyte numbers [1, 6] | Hemoglobin levels [1, 6] | Weight ([1]; IL-10 KO mice, 0.005 μg/day 1,25(OH)2D3 for 4 weeks, 9 weeks of age, mean ± SEM) | Serum Calcium ([1]; IL-10 KO mice, 0.005 μg/day 1,25(OH)2D3 for 4 weeks, mean ± SEM) | Histology Score ([1]; IL-10 KO mice, small intestine (jejunum) inflammation, scale 0 to 5, 0.005 μg/day for 4 weeks, mean ± SEM) | Small Intestine g [2, 7] | Small Intestine g/100 g body [2, 7] | IBD symptoms [2, 8] | Inflammation in the small intestine [2, 8] | Serum Calcium [3] | Diarrhea and mortality ([4]; 5.0 μg cholecalciferol/d from weaning (FIG. 1)) | Growth (body weight curve) ([4]; 5.0 μg cholecalciferol/d from weaning, compared to vitamin D deficient IL-10 KO mice (FIG. 2)) | Weight ([5]; 5.0 μg/d cholecalciferol for 4 weeks from 5 weeks of age) | Small Intestine g [5, 9] | Small Intestine g/100 g body [5, 9]
1 | C=C1/C(=C\C=C2/CCC[C@]3(C)[C@@H]([C@H](C)CCCC(C)(C)O)CC[C@@H]23)C[C@@H](O)C[C@@H]1O [1,25(OH)2D3, 1,25-dihydroxycholecalciferol] | normal and not different | normal and not different | 20.9 ± 0.8 g | 3.00 ± 0.30 mmol/L | 1.7 ± 0.4 | 1.08 ± 0.05 g | 5.4 ± 0.3 g/100 g body | ameliorated IBD symptoms | reduced the inflammation | 2.72 ± 0.25 mmol/L |  |  |  |  | 
2 | C=C1CC[C@H](O)C/C1=C/C=C1\CCC[C@]2(C)[C@@H]([C@H](C)CCCC(C)C)CC[C@@H]12 [cholecalciferol] |  |  |  |  |  |  |  |  |  |  | did not develop diarrhea or die | grew rapidly | 16.1 ± 1.1 g | 1.00 ± 0.02 g | 6.2 ± 0.3 g/100 g body
